Measured values reported in patent US20240350660A1, “Compositions and Methods for Increasing Bioavailability Using Cyclodextrin Modification” (priority 2021, published 2024).

Legend:
[1] = system: mouse model of diabetes (streptozotocin-induced); assay: Streptozotocin-induced diabetes mouse model, blood glucose 4 hours post treatment; type: in vivo, mice (C57BL/6)
Description: Eight week old male C57BL/6 strain of mice were used. The mice were fed on standard diet and water ad libitum. Diabetes was induced by intraperitoneal injection of 60 mg/kg of a freshly prepared streptozotocin (STZ) dissolved in 0.1 M cold citrate buffer at a pH of 4.5. Body weight, food, and fluid intake were monitored daily. Induction was continued for 7 consecutive days until chronic polydipsia and polyuria was established. Post-prandial blood glucose levels were measured by blood glucose strips, and mice with levels higher than 400 mg/dL were defined as chronically diabetic and chosen for experiments. Test animals were treated with product by oral gavage. For a given product, n=6 animals were treated. Blood samples for whole blood glucose were obtained from the tail tip 4 hours post treatment, and blood glucose levels were measured by Roche blood glucose strips. Means and standard error of the means were calculated. Differences in mean post-prandial blood glucose 4 hours post treatment of animals treated with product and untreated control […] diabetic animals (n=6) were calculated. Relative clinical effects of the products tested were determined by comparing the difference in blood glucose of treated relative to untreated controls.

[2] = system: SARS-COV-2; assay: Human ACE2 transgenic COVID-19 mouse model (body weight, survival); type: in vivo, hACE2 transgenic mice; settings: Daily
[3] = system: SARS-COV-2; assay: SARS-COV-2 replication in Vero E6 cells in vitro (viral load by RT-PCR); type: cell-based; settings: Severe acute respiratory syndrome coronavirus 2, Vero C1008; FIG. 3; cells treated at 1 μM final concentration; complexes at 1:1 molar ratio; read-out: Inhibition of SARS-COV-2 replication over untreated
[4] = 25 mg/kg oral gavage, n=6, glucose levels given in mg/dL
[5] = 200 mg/kg, Pretreatment to Day 7

## OC[C@H]1O[C@@H]2O[C@H]3[C@H](O)[C@@H](O)[C@@H](O[C@H]4[C@H](O)[C@@H](O)[C@@H](O[C@H]5[C@H](O)[C@@H](O)[C@@H](O[C@H]6[C@H](O)[C@@H](O)[C@@H](O[C@H]7[C@H](O)[C@@H](O)[C@@H](O[C@H]8[C@H](O)[C@@H](O)[C@@H](O[C@H]1[C@H](O)[C@H]2O)O[C@@H]8CO)O[C@@H]7CO)O[C@@H]6CO)O[C@@H]5CO)O[C@@H]4CO)O[C@@H]3CO [Betacyclodextrin alone, beta-cyclodextrin]
[1]; [4]
  Difference in 4 h Blood Glucose vs. Untreated: 35.46

## Cc1cnc(C(=O)NCCc2ccc(S(=O)(=O)NC(=O)NC3CCCCC3)cc2)cn1 [Glipizide]
[1]; 5 mg/kg oral gavage, n=6
  Difference in 4 h Blood Glucose vs. Untreated: 198.0

## CN(C)C(=N)N=C(N)N [Metformin]
[1]; 200 mg/kg oral
  Difference in 4 h Blood Glucose vs. Untreated: 173.9
[1]; 250 mg/kg oral gavage, n=6
  Difference in 4 h Blood Glucose vs. Untreated: 181.7

## O=c1c(O)c(-c2ccc(O)c(O)c2)oc2cc(O)cc(O)c12 [Quercitin]
[2]; 66 mg/kg, Pretreatment to Day 7
  Survival: 80%
[2]; [5]
  Survival: 100%

## CCC(CC)COC(=O)[C@H](C)N[P@](=O)(OC[C@H]1O[C@@](C#N)(c2ccc3c(N)ncnn23)[C@H](O)[C@@H]1O)Oc1ccccc1 [Remdesivir]
[2]; 50 mg/kg, Day 1 post-treatment to 7
  Survival: 100%
[2]; [5]
  Survival: 100%

## COc1cc(/C=C/C(=O)CC(=O)/C=C/c2ccc(O)c(OC)c2)ccc1O [Unconjugated Curcumin, curcumin]
[1]; 5 mg/kg oral gavage, n=6
  Difference in 4 h Blood Glucose vs. Untreated: 29.8
[1]; [4]
  Difference in 4 h Blood Glucose vs. Untreated: 60.22

## C[C@@H]1O[C@@H](OC[C@H]2O[C@@H](Oc3c(-c4ccc(O)c(O)c4)oc4cc(O)cc(O)c4c3=O)[C@H](O)[C@@H](O)[C@@H]2O)[C@H](O)[C@H](O)[C@H]1O [rutin]
[3]
  inhibition at 1 µM: ~25%

## Insulin
[1]; 0.5 IU sc
  Difference in 4 h Blood Glucose vs. Untreated: 203.2
[1]; 1 IU sc
  Difference in 4 h Blood Glucose vs. Untreated: 236.2
